From publication PMC4516313 (Journal of Medicinal Chemistry, 2015)
Like-named read-outs stand apart in the source and are kept apart here.

Tests used:
monkeys [1] = details: monkeys trained to discriminate cocaine, preliminary unpublished results
rhesus monkeys [2] = details: 5 day treatment, 3.0 mg/kg i.v., two of three monkeys
rats [3] = details: unpublished results
[4] = test system: 64 radioligand/enzyme assays; details: 10 μM; e.g. α1 adrenergic, α2 adrenergic, histamine H1, sodium channel site 2, CCK1, NK2
rats [5] = test system: rats
rats [6] = details: cited from earlier work
rats [7] = details: cited from earlier work; remark: listed apart in the source
rats [8] = details: cited from earlier work; remark: listed apart in the source
D3R [9] = details: cited from earlier work
[10] = test system: overweight and obese subjects; details: cited from earlier work
tobacco smokers = details: smokers after overnight abstinence; cited from earlier work
abstinent smokers = details: cited from earlier work
humans = details: cited from earlier work
rhesus monkeys [11] = details: cited from earlier work
rhesus monkeys [12] = details: cited from earlier work; remark: listed apart in the source
squirrel monkeys = details: cited from earlier work
monkeys [13] = details: 5 day treatment; cited from earlier work
cocaine abusers = details: cited from earlier work
monkeys [14] = details: cited from earlier work
D3R [15] = details: primates, PET, oral 1.0 mg/kg; cited from earlier work
[16] = history of long access (6 h per day, 6 days per week)
[17] = history of short access (1 h per day, 3 days per week)

## O=C(NCCC(O)CN1CCN(c2cccc(Cl)c2Cl)CC1)c1cc2ccccc2[nH]1 (racemic) [(±)-1, N-(4-(4-(2,3-dichlorophenyl)piperazin-1-yl)-3-hydroxybutyl)-1H-indole-2-carboxamide]
Monkeys [1]
  substitution for cocaine: does not substitute for cocaine
Rhesus monkeys [2]
  effect on METH choice curve: produced a leftward shift of the METH choice curve
Rats [3]
  effect on 7-OH DPAT-induced yawning: attenuated 7-OH DPAT-induced yawning in rats
Cynomolgus monkeys; 0.01 mg/kg cocaine available as the alternative to food
  cocaine choice, group data, posthoc comparison: significant increase in cocaine choice
Cynomolgus monkeys; seven cynomolgus monkeys, acute i.v., in all but one monkey
  effect on cocaine choice curve: either shifted the cocaine choice curve to the left (4 subjects) or had no effect (2 subjects)
[4]
  hits in the receptor panel: only “hit” a few
Rats [5]; 3.0 mg/kg i.p.
  Dunnett's test p vs vehicle, PR break points normalized to baseline: > 0.05
  Dunnett's test p vs vehicle, number of METH injections: > 0.05
Rats [5]; 10 mg/kg i.p.
  Dunnett's test p vs vehicle, PR break points normalized to baseline: < 0.001
  Dunnett's test p vs vehicle, number of METH injections: < 0.001
Rats [5]; i.p., 3.0 and 10 mg/kg
  effect on PR break points normalized to baseline responding: significantly reduced PR break points
  effect on number of METH injections (PR): significantly and dose-dependently reduced METH injections

## O=C(NCC[C@@H](O)CN1CCN(c2cccc(Cl)c2Cl)CC1)c1cc2ccccc2[nH]1 [(R)-1]
Rats [5]; 3.0 mg/kg i.p.
  Dunnett's test p vs vehicle, PR break points normalized to baseline: < 0.001
  Dunnett's test p vs vehicle, number of METH injections: < 0.01
Rats [5]; 10 mg/kg i.p.
  Dunnett's test p vs vehicle, PR break points normalized to baseline: < 0.001
  Dunnett's test p vs vehicle, number of METH injections: < 0.01

## O=C(NCC[C@H](O)CN1CCN(c2cccc(Cl)c2Cl)CC1)c1cc2ccccc2[nH]1 [(S)-1]
Rats [3]
  effect on 7-OH DPAT-induced yawning: attenuated 7-OH DPAT-induced yawning in rats
Rats [5]; 3.0 mg/kg i.p.
  Dunnett's test p vs vehicle, PR break points normalized to baseline: < 0.01
  Dunnett's test p vs vehicle, number of METH injections: > 0.05
Rats [5]; 10 mg/kg i.p.
  Dunnett's test p vs vehicle, PR break points normalized to baseline: < 0.001
  Dunnett's test p vs vehicle, number of METH injections: < 0.001

## O=C(NCCCCN1CCN(c2cccc(Cl)c2Cl)CC1)c1ccc2c(c1)Cc1ccccc1-2 [Compound 2, N-(4-(4-(2,3-dichlorophenyl)piperazin-1-yl)butyl)-9H-fluorene-2-carboxamide]
Rats [6]
  break point, cocaine PR schedule: significantly lowered the break point
Rats [7]
  cue- and cocaine-induced reinstatement of cocaine seeking: blocked both cue- and cocaine-induced reinstatement of cocaine seeking

## O=C(NC/C=C/CN1CCN(c2cccc(Cl)c2Cl)CC1)c1ccc(-c2ccccn2)cc1 [Compound 3]
Rats [8]; [16]
  PR METH self-administration: reduced PR METH self-administration
Rats [8]; [17]
  PR METH self-administration: in contrast to 3

## CN(C)C(=O)N[C@H]1CC[C@H](CCN2CCN(c3cccc(Cl)c3Cl)CC2)CC1 [Compound 6, cariprazine]
D3R [9]
  D3R-preferential: approximately 10 fold

## Cc1ncoc1-c1nnc(SCCCN2C[C@@H]3C[C@]3(c3ccc(C(F)(F)F)cc3F)C2)n1C [Compound 7]
[10]
  approach bias: reduced approach bias
  attentional bias to palatable food cues: reduced
Tobacco smokers
  craving: transiently alleviated craving
Abstinent smokers
  attentional bias, Stroop Task: partially attenuated an attentional bias

## COc1ccccc1N1CCN(CCCCNC(=O)c2ccc3ccccc3c2)CC1 [Compound 8]
humans
  outcome of clinical trials for cocaine abuse: failed in clinical trials for cocaine abuse

## O=C(NCCCCN1CCN(c2cccc(Cl)c2Cl)CC1)c1ccc(-c2ccccn2)cc1 [Compound 17, N-(4-(4-(2,3-dichlorophenyl)piperazin-1-yl)butyl)-4-(pyridin-2-yl)benzamide]
Rats [8]; [16]
  PR METH self-administration: reduced PR METH self-administration
Rats [8]; [17]
  PR METH self-administration: also reduced PR METH self-administration
Rhesus monkeys [11]; cocaine-naïve rhesus monkeys
  yawning: failed to do so
Rhesus monkeys [11]; monkeys with a history of cocaine self-administration
  yawning: induced yawning similar in magnitude to quinpirole
Rhesus monkeys [12]; monkeys, second-order schedule of reinforcement
  cocaine- and food-maintained responding: decreased both cocaine- and food-maintained responding
Rhesus monkeys [12]; rhesus monkeys
  cocaine's discriminative stimulus effects: attenuated cocaine’s discriminative stimulus effects
Squirrel monkeys
  cocaine self-administration and cocaine-induced reinstatement: failed to attenuate cocaine self-administration or cocaine-induced reinstatement

## O=C1CC2(CCCC2)CC(=O)N1CCCCN1CCN(c2ncccn2)CC1 [buspirone]
Monkeys [13]
  cocaine choice: increased cocaine choice
Cocaine abusers; 60 mg
  cocaine use: increased cocaine use in women
Cocaine abusers
  treatment-emergent adverse events: did not include increases in blood pressure
Monkeys [14]; monkeys self-administering cocaine
  cocaine-maintained vs food-reinforced behavior: decreased cocaine-maintained behavior to a larger degree than food-reinforced behavior
Monkeys [14]; rhesus monkeys, continuous infusions
  cocaine self-administration vs food-reinforced responding: decreased cocaine self-administration to a greater degree than food-reinforced responding
D3R [15]
  D3R occupancy: < 20%

## CCCN1CCC[C@@H]2Cc3n[nH]cc3C[C@H]21 [quinpirole, reference compound]
Rhesus monkeys [11]; cocaine-naïve rhesus monkeys
  yawning: induces robust yawning
